Results published in ChEMBL document CHEMBL1144655, “Potent and selective isophthalamide S2 hydroxyethylamine inhibitors of BACE1” (Bioorg Med Chem Lett, 2007).

How the values were obtained:
Cathepsin D = Cathepsin D (Homo sapiens, UniProt P07339); assay: Inhibition of cathepsin D
Beta-secretase 1 = Beta-secretase 1 (Homo sapiens, UniProt P56817); assay: Inhibition of BACE1
Beta-secretase 1, sequence (P56817 whole entry): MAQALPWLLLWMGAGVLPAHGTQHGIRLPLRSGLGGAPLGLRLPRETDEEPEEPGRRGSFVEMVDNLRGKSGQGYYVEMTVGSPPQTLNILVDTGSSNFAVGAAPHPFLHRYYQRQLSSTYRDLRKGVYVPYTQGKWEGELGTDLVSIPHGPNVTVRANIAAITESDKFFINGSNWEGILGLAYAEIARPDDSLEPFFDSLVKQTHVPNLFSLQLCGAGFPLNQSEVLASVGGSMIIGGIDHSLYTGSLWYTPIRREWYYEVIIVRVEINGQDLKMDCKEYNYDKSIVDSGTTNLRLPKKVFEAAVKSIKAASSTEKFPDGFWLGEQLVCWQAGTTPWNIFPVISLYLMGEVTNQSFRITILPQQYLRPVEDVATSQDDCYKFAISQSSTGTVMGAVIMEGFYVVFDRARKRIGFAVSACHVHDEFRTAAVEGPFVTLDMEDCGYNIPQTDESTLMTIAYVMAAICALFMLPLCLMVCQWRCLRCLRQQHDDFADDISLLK

Cathepsin D, sequence (P07339 65-162 limits assumed): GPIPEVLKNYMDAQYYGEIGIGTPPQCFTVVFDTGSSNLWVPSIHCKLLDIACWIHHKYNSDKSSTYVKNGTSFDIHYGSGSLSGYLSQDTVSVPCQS
Cathepsin D, sequence (P07339 169-412 limits assumed): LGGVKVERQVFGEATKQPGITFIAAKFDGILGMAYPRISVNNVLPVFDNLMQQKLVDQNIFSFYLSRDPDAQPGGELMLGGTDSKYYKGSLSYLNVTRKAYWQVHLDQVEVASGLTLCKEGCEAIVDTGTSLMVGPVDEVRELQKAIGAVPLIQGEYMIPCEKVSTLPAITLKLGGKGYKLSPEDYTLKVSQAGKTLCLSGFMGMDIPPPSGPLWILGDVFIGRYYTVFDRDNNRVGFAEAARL

SMILES	IC50 (Cathepsin D)	IC50 (Beta-secretase 1)
CCCN(CCC)C(=O)c1cc(C(=O)N[C@@H](Cc2ccccc2)[C@H](O)CNCc2cccc(OC)c2)cc(C(=O)N(CCC)CCC)c1	3600 nM	250 nM
CCCNC(=O)c1cc(C#N)cc(C(=O)N[C@@H](Cc2ccccc2)[C@H](O)CNCc2cccc(OC)c2)c1	> 20000 nM	770 nM
CCCN(CCC)C(=O)c1cc(C(=O)N[C@@H](Cc2ccccc2)[C@H](O)CNCc2cccc(OC)c2)cc(C(=O)N(C)C)c1	3800 nM	70 nM
CCCN(CCC)C(=O)c1cc(C(N)=O)cc(C(=O)N[C@@H](Cc2ccccc2)[C@H](O)CNCc2cccc(OC)c2)c1	2800 nM	100 nM
CCCN(CCC)C(=O)c1cc(C(=O)O)cc(C(=O)N[C@@H](Cc2ccccc2)[C@H](O)CNCc2cccc(OC)c2)c1	3600 nM	30 nM
CCCNC(=O)c1cc(C(N)=O)cc(C(=O)N[C@@H](Cc2ccccc2)[C@H](O)CNCc2cccc(OC)c2)c1	> 20000 nM	1900 nM
CCCN(CCC)C(=O)c1cc(C(N)=O)cc(C(=O)N[C@@H](Cc2cc(F)cc(F)c2)[C@H](O)CNCc2cccc(OC)c2)c1	2400 nM	–
CCCN(CCC)C(=O)c1cc(C)cc(C(=O)N[C@@H](Cc2cc(F)cc(F)c2)[C@H](O)CNCc2cccc(CC)c2)c1	150 nM	2 nM
CCCN(CCC)C(=O)c1cc(C(N)=O)cc(C(=O)N[C@@H](Cc2ccc(O)cc2)[C@H](O)CNCc2cccc(OC)c2)c1	> 20000 nM	300 nM

Second part, the compound after the results:

IC50 (Cathepsin D)	IC50 (Beta-secretase 1)	SMILES
570 nM	360 nM	CCCN(CCC)C(=O)c1cc(CC#N)cc(C(=O)N[C@@H](Cc2ccccc2)[C@H](O)CNCc2cccc(OC)c2)c1
450 nM	100 nM	CCCN(CCC)C(=O)c1cc(C)cc(C(=O)N[C@@H](Cc2ccccc2)[C@H](O)CNCc2cccc(OC)c2)c1
660 nM	90 nM	CCCN(CCC)C(=O)c1cc(C#N)cc(C(=O)N[C@@H](Cc2ccccc2)[C@H](O)CNCc2cccc(OC)c2)c1
866 nM	132 nM	CCCN(CCC)C(=O)c1cc(C(=O)N[C@@H](Cc2ccccc2)[C@H](O)CNCc2cccc(OC)c2)cc(C(=O)OCC)c1
1600 nM	5 nM	CCCN(CCC)C(=O)c1cc(C(N)=O)cc(C(=O)N[C@@H](Cc2cc(F)cc(F)c2)[C@H](O)CNCc2cccc(CC)c2)c1
